Patent EP1228077B1, “RUTHENIUM (II) COMPLEXES WITH HIGH ANTITUMORAL AND ANTIMETASTATIC ACTIVITIES” (priority 1999, dated 2001)

Experiments:
Type in all cases: in vivo
MCa mammary carcinoma [1] = test: Example 5: prevention of lung metastases in mice with MCa mammary carcinoma; conditions: lung metastases on day 23, i.p. treatment day 10 to 15; for Metastases Number: CBA/Lac female mice, 7 per group
Procedure: In a further experiment similar to the previous one, six groups of animals, each of them composed of 7 CBA/Lac kin female mice, weighing 23±3 g were inoculated on day 0 with cells of MCa mammary carcinoma, according to the protocol described in the previous example. From day 10 to day 15 after tumour implantation, the 6 groups of mice were treated intraperitoneally using a sterile insulin syringe, respectively with: • Group 1: […] RUT: 35 mg/kg body weight/die of Ruthenium (III) complex, (ImH)[trans-RuCl4(Me2SO)(Im)] in sterile and pyrogen-free physiological saline solution; • Group 5: […] The reducing agents glutathione and cysteine were used in an equivalent ratio of 1 with the Ruthenium (III) complex. The redox reaction was immediate. The administration took place after the analytical control of total reduction of the Ruthenium (III) to Ruthenium (II) complexes. On day 16 from tumour implantation, the growth of the primary tumour as described in the previous example was evaluated. On day 23 from tumour implantation, the mice were sacrificed and the metastases were evaluated as in previous example. The experimental data obtained were processed by appropriate statistical tests and reported in Table 2, wherein the number and weight of lung metastases obtained in the treated group of animals are also reported.

[2] = system: Lewis lung carcinoma (LLC); test: Example 6: lung metastases in BD2F1 mice with Lewis lung carcinoma; conditions: day 20; treatment day 8 to 13
Procedure: Groups of 7 BD2F1 female mice were inoculated by means of intramuscular injection on day 0 with cells of Lewis lung carcinoma (LLC). From day 8 to day 13 the animals were treated with the Ruthenium (III) complex [trans-RuCl4(DMSO)(lm)](lmH), (compound of formula II) and with the Ruthenium (II) complex, trans-RuCl2(DMSO)4, both belonging to the state of the art. On day 20 from tumour implantation, the mice were sacrificed and the metastases evaluated. All the procedures of the experiments were carried out as reported in the previous examples.

MCa mammary carcinoma [3] = test: Example 4: prevention of lung metastases in mice with MCa mammary carcinoma; conditions: lung metastases on day 21, i.p. treatment day 12 to 17; for Metastases Number: CBA/Lac female mice, 6 per group
Procedure: Six groups composed of 6 CBA\Lac kin female mice, weighing 23±3 g were inoculated on day 0 with 10^6 viable cells (as determined with Trypan blue-exclusion test) of MCa mammary carcinoma, in 0.05 ml volume of Dulbecco's buffered at pH 7.4 calcium and magnesium-free saline physiological solution (D-PBS), by intramuscular injection with a sterile insulin syringe. The tumour cells derive from donors of the same strain, were transplanted with an insulin sterile syringe accordingly to the same procedure two weeks before. The tumour cells in PBS suspension were prepared by mechanical mincing of the tumour mass obtained from donor mice and by further removing tissue and cell debris by filtration through a double layer of sterile gauze and further centrifugation at 250xg for 10 minutes. The kin animals were derived from a colony obtained from Chester Beatthy, London (UK) and grown in the University of Trieste pound according to the procedures for the rearing of kin animals. The MCa mammary carcinoma tumour line derives from a stock, kept in liquid nitrogen, of tumour cells obtained originally from Rudjer Boskovic Institute, Zagreb (HR).
From day 12 to day 17 after tumour implantation, the six groups of mice were treated intraperitoneally using an insulin sterile syringe, respectively with: • Group 1. Control: […] body weight/die of sterile pyrogen-free physiological solution; • Group 2. ASC: 6.69 mg/kg body weight/die of ascorbic acid in sterile and pyrogen-free physiological solution; • Group 3. CYST: 12 mg/kg body weight/die of […] in sterile and pyrogen-free physiological solution; • Group 4. RUT: 35 mg/kg body weight/die of Ruthenium (III) complex, (lmH)[trans-RuCl4(Me2SO)(Im)] in pyrogen-free and sterile physiological solution; • Group 5. RUT-ASC: 35 mg/kg body weight/die of the Ruthenium (III) complex, (ImH)[trans-RuCl4(Me2SO)(Im)] and 12 mg/kg body weight/die of cysteine in sterile and pyrogen-free physiological saline solution; • Group 6. RUT-CYST: 35 mg/kg body weight/die of the Ruthenium (III) complex, (ImH)[trans-RuCl4(Me2SO)(Im)] and 12 mg/kg body weight/die of cysteine in sterile and pyrogen-free physiological saline solution.
The reducing agents ascorbic acid and cysteine were used in a equivalent ratio corresponding to 1 with the Ruthenium (III) complex. The redox reaction was immediate. The administration took place after analytical control of the complete reduction of the Ruthenium (III) complex to Ruthenium (II).
(§1) On day 17 from tumour implantation, the growth of the primary tumour was evaluated and the tumor surgically removed after general anaesthesia of the animals with ketamine. The tumor size was determined by measuring both orthogonal axes of the tumour by means of a caliber, the weight in grams of the rotation solid developed around these axes was measured, considering the tumour density equal to 1 and using the formula. (π/6).a^2.b, wherein a was the minor and b the major axis.
On day 21 from tumour implantation, the mice were sacrificed by cervical dislocation and lung metastases were analyzed. The lungs removed from the animal immediately after sacrifice, were divided in single lobes, which were then examined immediately with a low-magnification microscope equipped with an ocular-grid for the measurement of the metastases sizes from which the two orthogonal a and b axes (with a ≤b) are identified. The metastases were then grouped on the basis of their dimensions and the metastatic tumour weight was calculated as the sum of the weight of each single metastasis, each of them regarded as a rotation solid developed around the above mentioned axes, and with a volume calculated by the same formula used for the primary tumour. The experimental data obtained were therefore processed by appropriate statistical tests. The results are reported in Table 1 wherein the number and weight of lung metastases obtained in each group of animal are shown.

[4] = Example 8: systemic toxicity (body weight) in tumour-bearing mice
Procedure: Four groups each composed of 6 CBA/Lac kin female […] weighing 23±3 g. were inoculated on day 0 with tumour cells according to the protocol described in the previous examples. From day 12 to day 17, after tumour implantation, the four groups of mice were treated intraperitoneally using a sterile insulin syringe, respectively with: • Group 1: Control: 10 ml/kg body weight/die of sterile and pyrogen-free physiological solution; • Group 2: ASC: 6.69 mg/kg body weight/die of ascorbic acid in sterile and pyrogen-free physiological solution; • Group 3: RUT: 35 mg/kg body weight/die of Ruthenium (III) complex, (lmH)[trans-RuCl4(Me2SO)(Im)] in sterile and pyrogen-free physiological solution; • Group 4: RUT+ASC: 35 mg/kg body weight/die of Ruthenium (III) complex (lmH)[trans-RuCl4(Me2SO)(lm)] and 6.69 mg/kg body weight/ die of ascorbic acid in sterile and pyrogen-free physiological saline solution.
The reducing agent (ascorbic acid) was used in a equivalent ratio of 1 with the Ruthenium (III) complex. The redox reaction was immediate.
The administration took place after analytical control of the complete reduction of the Ruthenium (III) complex to Ruthenium (II).
On day 18 from tumour implantation, the primary tumour and the spleen were removed and weighed, as described previously.
The experiment confirms the lower toxicity of the Ruthenium (II) complexes of the invention (group 4) with respect to the prior art Ruthenium (III) complexes (group 3).

[5] = Example 7: systemic toxicity (body weight, spleen weight) in tumour-bearing mice
Procedure: Four groups, each of them composed of 7 CBA/Lac-kin female mice weighing 23±3 g on day 0 were inoculated with MCa mammary carcinoma cells according to the protocol described in the previous examples. From day 11 to day 16 after tumour implantation, the four groups of mice were treated intraperitoneally using a sterile insulin syringe, respectively with: • Group 1: Control: 10 ml/kg body weight/die of sterile and pyrogen-free physiological solution; • Group 2: CYST: 2 mg/kg body weight/die of cysteine in sterile and pyrogen-free physiological solution; • Group 3: RUT: 35 mg/kg body weight/die of Ruthenium (III) complex (lmH)[trans-RuCl4(Me2SO)(Im)] in sterile and pyrogen-free physiological solution; • Group 4: RUT-CYST: 35 mg/kg body weight/die of Ruthenium (III) complex , (ImH)[trans-RuCl4(Me2SO)(lm)] and 12 mg/kg body weight/die of cysteine in sterile and pyrogen-free physiological solution.
The reducing agent (cysteine) was used in a equivalent ratio of 1with the Ruthenium (III) complex. The redox reaction was immmediate.
The administration took place after analytical control of the complete reduction of the Ruthenium (III) to Ruthenium (II) complexes.
(§2) On day 17 from tumour implantation, the mice were sacrificed, the primary tumour and the spleen were removed and analysed as in the previous example. […]
The data reported in the Table 4 indicate how the body weight and the spleen weight, which are indicators of the systemic toxicity of the treatment, turned out to be more similar to the control (group 1) when the mice were treated with the Ruthenium (II) complexes according to the invention (group 4) than when treated with Ruthenium (III) (group 3) only.

MCa mammary carcinoma [6] = test: Example 7: primary tumour weight variation in mice with MCa mammary carcinoma; conditions: weight variation with respect to the controls, day 11 to day 17; i.p. treatment day 11 to 16
Procedure: as §1
Four groups, each of them composed of 7 CBA/Lac-kin female mice weighing 23±3 g on day 0 were inoculated with MCa mammary carcinoma cells according to the protocol described in the previous examples. […]
as §2

[7] = day 17, after i.p. treatment day 11 to 16

Structure (SMILES)	%T/C (metastases weight in the treated animals/metastases weight in the controls) (MCa mammary carcinoma [1]) [%]	Metastases Weight (MCa mammary carcinoma [1]) [mg]	Metastases Number (MCa mammary carcinoma [1])	Lung Metastases Number %T/C [2] [%]	Lung Metastases Weight [2]	Lung Metastases Weight %T/C [2] [%]	%T/C (metastases weight in the treated animals/metastases weight in the controls) (MCa mammary carcinoma [3]) [%]	Metastases Weight (MCa mammary carcinoma [3]) [mg]	a.p./a.t (number of animals devoid of metastases/ total number of animals) (MCa mammary carcinoma [3])	Metastases Number (MCa mammary carcinoma [3])	also measured
N[C@@H](CCC(=O)N[C@@H](CS)C(=O)NCC(=O)O)C(=O)O [GLU, glutathione]	75	138.8 ± 20.5	47.0±3.9								
C[SH](C)(=O)[Ru]([Cl])([Cl])([SH](C)(C)=O)([SH](C)(C)=O)[SH](C)(C)=O [trans-RuCl2(DMSO)4]				82	85.5±19.3	45					
O=C1O[C@H]([C@@H](O)CO)C(O)=C1O [ASC, ascorbic acid]							86	81.5 ± 14	0/6	18.3± 8.6	Body weight (day 12) ([4]; day 12, start of i.p. treatment): 27.6±0.7; Body weight (day 18) ([4]; day 18, after i.p. treatment day 12 to 17): 26.7±1.2
N[C@@H](CS)C(=O)O [CYST, cysteine]	76	141.2 ± 15.1	30.5±7.2				103	94.6 ± 26	0/6	35.0± 13.5	% variation (body weight) ([5]; body weight variation with respect to the controls, day 11 to 17): -2.5%; Body weight (day 11) ([5]; day 11, start of i.p. treatment): 30.5±0.6; Body Weight (day 17) [5, 7]: 28.8±0.6; Spleen weight (day 17) [5, 7]: 297± 3.3
CS(C)=O.[Cl-].[Cl-].[Cl-].[Cl-].[Ru+3].c1c[nH+]c[nH]1.c1c[nH]cn1 [RUT, (ImH)[trans-RuCl4(Me2SO)(Im)]]	45	83.6 ± 4.5	27.5±3.0	38	47.6±11.5	25	16	15.2 ± 2.3	0/6	7.0± 1.9	% Variation of the primary tumour (MCa mammary carcinoma [6]): -30.3%; Body weight (day 12) ([4]; mouse, in vivo, ip): 27.0±0.9; Body weight (day 18) ([4]; mouse, in vivo, ip): 23.3±0.8; Body Weight (day 17) ([5]; mouse, in vivo, ip): 26.5±0.8; Body weight (day 11) ([5]; mouse, in vivo, ip): 30.0±1.0; Spleen weight (day 17) ([5]; mouse, in vivo, ip): 197± 8.8
